Measurements taken from patent USRE47689E1, “Compounds for treating spinal muscular atrophy” (PTC Therapeutics, Inc., priority 2011, dated 2019).

How the values were obtained:
[1] = tested on: SMN2 minigene (full length SMN2 minigene mRNA containing SMN2 exon 7); test: SMN2 minigene mRNA splicing RT-qPCR assay in cultured cells; type: cell-based, human; conditions: Homo sapiens, HEK293-H; HEK293H cells stably transfected with SMN2-A minigene; 24 hours; 7-point concentration curve; 1.5-fold relative to vehicle-treated cells; read-out: EC1.5x for production of full length SMN2 mRNA
How it was run: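 Lysates → one-step RT-qPCR, minigene-specific primers (0.4 μM final) + GAPDH multiplex, 40 cycles. FL/GAPDH vs DMSO; EC1.5x, star-binned.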

Smn protein = Smn protein assay in cultured cells (SMN HTRF); type: cell-based, human; conditions: 48 hours; for maximum fold (Fold) increase of Smn protein: SMA patient fibroblast cells, 7-point concentration data, fold increase relative to vehicle control (SMN HTRF); for EC1.5x (concentration giving 1.5-fold Smn protein increase): SMA Type 1 patient fibroblast cells (GM03813), 7-point concentration curve, SMN HTRF, concentration producing 1.5 times Smn protein vs DMSO vehicle control, read-out: EC1.5x for Smn protein expression
How it was run: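 Smn in SMA fibroblast lysates, measured by anti-SMN HTRF after 48 h compound exposure; EC1.5x from fold change over vehicle.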

Compound | EC (1.5-fold) [1] | maximum fold (Fold) increase of Smn protein (Smn protein) | melting point | EC1.5x (concentration giving 1.5-fold Smn protein increase) (Smn protein)
C[C@@H]1CN(c2ccc3cc(-c4cc5ccccn5c4)c(=O)oc3c2)C[C@H](C)N1 [Compound 553, 7-[(3R,5S)-3,5-dimethylpiperazin-1-yl]-3-(indolizin-2-yl)-2H-chromen-2-one] | 0.3 to 1 µM | * (maximum fold increase of ≤1.2) | 164 to 167 °C | –
Cc1nccn2cc(-c3cc4ccc(N5C[C@@H](C)N[C@@H](C)C5)cc4oc3=O)cc12 [Compound 554, 7-[(3R,5S)-3,5-dimethylpiperazin-1-yl]-3-(1-methylpyrrolo[1,2-a]pyrazin-7-yl)-2H-chromen-2-one] | < 0.1 µM | ***** (fold increase >1.65) | 200 to 203 °C | < 300 nM
Cc1nccn2cc(-c3cc4ccc(N5CCNCC5)cc4oc3=O)cc12 [Compound 555, 3-(1-methylpyrrolo[1,2-a]pyrazin-7-yl)-7-(piperazin-1-yl)-2H-chromen-2-one] | 0.1 to 0.3 µM | **** (fold increase between >1.5 and ≤1.65) | 264 to 266 °C | < 300 nM
Cc1nccn2cc(-c3cc4ccc(N5CCCN(C)CC5)cc4oc3=O)cc12 [Compound 556, 7-(4-methyl-1,4-diazepan-1-yl)-3-(1-methylpyrrolo[1,2-a]pyrazin-7-yl)-2H-chromen-2-one] | 0.1 to 0.3 µM | *** (fold increase between >1.35 and ≤1.5) | 125 to 128 °C | 300 to 1000 nM
Cc1nccn2cc(-c3cc4ccc(N5CCN(C)CC5)cc4oc3=O)cc12 [Compound 557, 7-(4-methylpiperazin-1-yl)-3-(1-methylpyrrolo[1,2-a]pyrazin-7-yl)-2H-chromen-2-one] | 0.3 to 1 µM | *** (fold increase between >1.35 and ≤1.5) | 190 to 192 °C | –
Cc1nccn2cc(-c3cc4ccc(N5CCCN(C)CC5)cc4oc3=O)nc12 [Compound 558, 7-(4-methyl-1,4-diazepan-1-yl)-3-(8-methylimidazo[1,2-a]pyrazin-2-yl)-2H-chromen-2-one] | < 0.1 µM | **** (fold increase between >1.5 and ≤1.65) | 180 to 182 °C | 300 to 1000 nM
Cc1cc(F)c2nc(-c3cc4ccc(N5CCN6CCC[C@H]6C5)cc4oc3=O)cn2c1 [Compound 560, 3-(8-fluoro-6-methylimidazo[1,2-a]pyridin-2-yl)-7-[(8aS)-hexahydropyrrolo[1,2-a]pyrazin-2(1H)-yl]-2H-chromen-2-one] | 0.1 to 0.3 µM | **** (fold increase between >1.5 and ≤1.65) | 296 to 306 °C | < 300 nM
Cc1cc(F)c2nc(-c3cc4ccc(N5CCN6CCC5CC6)cc4oc3=O)cn2c1 [Compound 561, 7-(1,4-diazabicyclo[3.2.2]non-4-yl)-3-(8-fluoro-6-methylimidazo[1,2-a]pyridin-2-yl)-2H-chromen-2-one] | 0.3 to 1 µM | **** (fold increase between >1.5 and ≤1.65) | 287 to 297 °C | < 300 nM
Cc1cn2cc(-c3cc4ccc(NC5CCNCC5)cc4oc3=O)nc2c(C)n1 [Compound 562, 3-(6,8-dimethylimidazo[1,2-a]pyrazin-2-yl)-7-(piperidin-4-ylamino)-2H-chromen-2-one] | < 0.1 µM | **** (fold increase between >1.5 and ≤1.65) | 255 to 261 °C | < 300 nM
Cc1cn2cc(-c3cc4ccc(N[C@@H]5CCNC5)cc4oc3=O)nc2c(C)n1 [Compound 564, 3-(6,8-dimethylimidazo[1,2-a]pyrazin-2-yl)-7-[(3R)-pyrrolidin-3-ylamino]-2H-chromen-2-one] | < 0.1 µM | ***** (fold increase >1.65) | 290 to 300 °C | < 300 nM
Cc1nccn2cc(-c3cc4ccc(N5CCN[C@@H](C)C5)cc4oc3=O)cc12 [Compound 566, 7-[(3S)-3-methylpiperazin-1-yl]-3-(1-methylpyrrolo[1,2-a]pyrazin-7-yl)-2H-chromen-2-one] | < 0.1 µM | **** (fold increase between >1.5 and ≤1.65) | 184 to 186 °C | < 300 nM
Cc1cn2cc(-c3cc4ccc(N5CCNCC5)cc4oc3=O)nc2cn1 [Compound 567, 3-(6-methylimidazo[1,2-a]pyrazin-2-yl)-7-(piperazin-1-yl)-2H-chromen-2-one] | < 0.1 µM | ***** (fold increase >1.65) | 288 to 290 °C | < 300 nM
Cc1nccn2cc(-c3cc4ccc(N5CCNCC5)cc4oc3=O)nc12 [Compound 571, 3-(8-methylimidazo[1,2-a]pyrazin-2-yl)-7-(piperazin-1-yl)-2H-chromen-2-one] | 0.3 to 1 µM | ** (fold increase between >1.2 and ≤1.35) | 213 to 215 °C | –
Cc1nccn2cc(-c3cc4ccc(N5CCCNCC5)cc4oc3=O)nc12 [Compound 572, 7-(1,4-diazepan-1-yl)-3-(8-methylimidazo[1,2-a]pyrazin-2-yl)-2H-chromen-2-one] | 0.1 to 0.3 µM | **** (fold increase between >1.5 and ≤1.65) | 212 to 216 °C | 300 to 1000 nM
COc1cc(-c2cc3ccc(N4CCNCC4)cc3oc2=O)ccc1C [Compound 574, 3-(3-methoxy-4-methylphenyl)-7-(piperazin-1-yl)-2H-chromen-2-one] | 1 to 3 µM | * (maximum fold increase of ≤1.2) | 170 to 174 °C | –
COc1cc(-c2cc3ccc(N4CCN[C@@H](C)C4)cc3oc2=O)ccc1C [Compound 575, 3-(3-methoxy-4-methylphenyl)-7-[(3S)-3-methylpiperazin-1-yl]-2H-chromen-2-one] | 0.3 to 1 µM | * (maximum fold increase of ≤1.2) | 166 to 170 °C | –
COc1cc(-c2cc3ccc(N4CCNCC4)cc3oc2=O)ccc1F [Compound 576, 3-(4-fluoro-3-methoxyphenyl)-7-(piperazin-1-yl)-2H-chromen-2-one] | 1 to 3 µM | * (maximum fold increase of ≤1.2) | 153 to 155 °C | –
COc1cc(-c2cc3ccc(N4CCN[C@@H](C)C4)cc3oc2=O)ccc1F [Compound 577, 3-(4-fluoro-3-methoxyphenyl)-7-[(3S)-3-methylpiperazin-1-yl]-2H-chromen-2-one] | 1 to 3 µM | ** (fold increase between >1.2 and ≤1.35) | 189 to 191 °C | –
O=c1oc2cc(N3CCN4CCCCC4C3)ccc2cc1-c1cn2cccc(F)c2n1 (stereo not drawn) [Compound 578, 3-(8-fluoroimidazo[1,2-a]pyridin-2-yl)-7-(octahydro-2H-pyrido[1,2-a]pyrazin-2-yl)-2H-chromen-2-one] | 1 to 3 µM | * (maximum fold increase of ≤1.2) | 230 to 233 °C | –
Cc1ccn2cc(-c3cc4ccc(N[C@H]5CCNC5)cc4oc3=O)nc2c1 [Compound 581, 3-(7-methylimidazo[1,2-a]pyridin-2-yl)-7-[(3S)-pyrrolidin-3-ylamino]-2H-chromen-2-one] | 0.3 to 1 µM | * (maximum fold increase of ≤1.2) | 243 to 253 °C | –
Cc1cc(F)c2nc(-c3cc4ccc(N[C@H]5CCNC5)cc4oc3=O)cn2c1 [Compound 582, 3-(8-fluoro-6-methylimidazo[1,2-a]pyridin-2-yl)-7-[(3S)-pyrrolidin-3-ylamino]-2H-chromen-2-one] | 0.3 to 1 µM | ** (fold increase between >1.2 and ≤1.35) | 230 to 240 °C | –
Cc1cc(F)c2nc(-c3cc4ccc(N[C@@H]5CCNC5)cc4oc3=O)cn2c1 [Compound 583, 3-(8-fluoro-6-methylimidazo[1,2-a]pyridin-2-yl)-7-[(3R)-pyrrolidin-3-ylamino]-2H-chromen-2-one] | 0.3 to 1 µM | ** (fold increase between >1.2 and ≤1.35) | 231 to 238 °C | –
Cc1cn2cc(-c3cc4ccc(N5C[C@@H](C)N[C@@H](C)C5)cc4oc3=O)cc2cn1 [Compound 584, 7-[(3R,5S)-3,5-dimethylpiperazin-1-yl]-3-(3-methylpyrrolo[1,2-a]pyrazin-7-yl)-2H-chromen-2-one] | < 0.1 µM | ***** (fold increase >1.65) | 172 to 174 °C | < 300 nM
C[C@H]1CN(c2ccc3cc(-c4cn5cccc(F)c5n4)c(=O)oc3c2)CCN1C [Compound 585, 7-[(3S)-3,4-dimethylpiperazin-1-yl]-3-(8-fluoroimidazo[1,2-a]pyridin-2-yl)-2H-chromen-2-one] | 0.3 to 1 µM | *** (fold increase between >1.35 and ≤1.5) | 188 to 192 °C | –
